The values that follow come from patent publication US8653087B2, “Pyrido [5, 4-D] pyrimidines as cell proliferation inhibitors” (Boehringer Ingelheim International GmbH, priority 2008, dated 2014).

For this test, the target named is B-Raf (V600E)-kinase (Homo sapiens (Human), UniProt P15056, V600E). The test can be described thus: Kinase test B-RAF (V600E). It is filed as biochemical. To be noted: B-RAF (V600E) kinase test, 250 μM ATP. How it is done:
Kinase Test B-RAF (V600E)
In a dilution series 10 μL of test substance solution are placed in a multiwell plate. The dilution series is selected so that generally a range of concentrations of 2 μM to 0.119 nM or 0.017 nM is covered. If necessary the initial concentration of 2 μM is changed to 50 μM, 10 μM or 0.4 μM or 0.2857 μM and further dilution is carried out accordingly. The final concentration of DMSO is 5%. 10 μL of the B-Raf (V600E)-kinase solution are pipetted in (containing 0.5 ng B-Raf (V600E)-kinase in 20 mM Tris-HCl pH 7.5, 0.1 mM EDTA, 0.1 mM EGTA, 0.286 mM sodium orthovanadate, 10% glycerol, 1 mg/mL bovine serum albumin, 1 mM dithiothreitol) and the mixture is incubated for 24 h at RT under with shaking. The kinase reaction is started by the addition of 20 μL ATP solution [final concentration: 250 μM ATP, 30 mM Tris-HCl pH 7.5, 0.02% Brij, 0.2 mM sodium orthovanadate, 10 mM magnesium acetate, 0.1 mM EGTA, phosphatase cocktail (Sigma, # P2850, dilution recommended by the manufacturer), 0.1 mM EGTA] and 10 μL MEK1 solution [containing 50 ng biotinylated MEK1 (prepared from purified MEK1 according to standard procedure, e.g. with EZ-Link Sulpho-NHS-LC-Biotin reagent, Pierce, #21335) and carried out for 60 min at RT with constant shaking. The reaction is stopped by the addition of 12 μL of a 100 mM EDTA solution and incubation is continued for a further 5 min. 55 μL of the reaction solution are transferred into a streptavidin-coated plate (e.g. Streptawell HighBond, Roche, #11989685001) and shaken gently for 1 h at RT, in order to bind biotinylated MEK1 to the plate. After elimination of the liquid the plate is washed five times with 200 μL of 1×PBS and 100 μL solution of primary antibody plus europium-labelled secondary antibody [Anti Phospho-MEK (Ser217/221), Cell Signaling, #9121 and Eu-N1 labeled goat-anti-rabbit antibody, Perkin Elmer, # AD0105], the primary antibody is diluted 1:2000 and the secondary antibody is diluted to 0.4-0.5 μg/mL in Delfia Assay Buffer (Perkin Elmer, #1244-111). After 1 h shaking at RT the solution is poured away and washed five times with 200 μL Delfia Wash Buffer (Perkin Elmer, #4010-0010/#1244-114). After the addition of 200 μL Enhancement Solution (Perkin Elmer, #4001-0010/#1244-105) the mixture is shaken for 10 min at RT and then measured in a Wallac Victor using the program “Delfia Time Resolved Fluorescence (Europium)”. IC50 values are obtained from these dosage-activity curves using a software program (GraphPadPrizm).

Molecules are shown by their SMILES.

B-Raf (V600E)-kinase, sequence (P15056 whole entry V600E): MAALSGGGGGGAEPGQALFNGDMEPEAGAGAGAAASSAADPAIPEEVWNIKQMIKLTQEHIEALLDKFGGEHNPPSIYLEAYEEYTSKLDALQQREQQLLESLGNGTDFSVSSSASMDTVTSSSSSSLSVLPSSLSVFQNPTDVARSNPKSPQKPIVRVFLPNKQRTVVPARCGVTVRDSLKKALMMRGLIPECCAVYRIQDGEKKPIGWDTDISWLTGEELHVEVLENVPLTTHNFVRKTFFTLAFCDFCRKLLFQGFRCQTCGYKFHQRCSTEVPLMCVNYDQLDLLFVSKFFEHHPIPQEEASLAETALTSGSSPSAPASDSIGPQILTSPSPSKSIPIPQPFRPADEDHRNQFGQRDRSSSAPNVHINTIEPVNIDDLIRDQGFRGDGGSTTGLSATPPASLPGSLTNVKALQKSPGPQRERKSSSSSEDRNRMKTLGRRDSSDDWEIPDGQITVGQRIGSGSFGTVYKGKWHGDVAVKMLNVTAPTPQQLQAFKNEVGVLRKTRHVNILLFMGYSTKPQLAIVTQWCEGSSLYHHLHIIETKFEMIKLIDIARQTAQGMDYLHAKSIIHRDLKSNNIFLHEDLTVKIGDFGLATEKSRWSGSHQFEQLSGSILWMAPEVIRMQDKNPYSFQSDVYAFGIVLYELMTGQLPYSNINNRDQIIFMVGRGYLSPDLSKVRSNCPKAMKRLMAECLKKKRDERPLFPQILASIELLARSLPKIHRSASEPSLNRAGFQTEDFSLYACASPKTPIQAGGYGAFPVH

Usually IC50 stands for the concentration at which inhibition is half-maximal. A high value points to weaker potency in that assay. `CNc1ncc2ncnc(Nc3cc(C(=O)Nc4cc(OCCN(C)C)cc(C(F)(F)F)c4)ccc3C)c2n1` [III-156] had an IC50 of less than 1 nM.

For the molecule `Cc1ccc(C(=O)Nc2cc(N(C)CCN(C)C)cc(C(F)(F)F)c2)cc1Nc1ncnc2cnc(N(C)CC3CCCCO3)nc12` (centres unmarked) [III-407], the concentration for half-maximal inhibition (IC50) is 10 nM.

As for `Cc1ccc(C(=O)NCc2ccc(C(F)(F)F)cc2)cc1Nc1ncnc2cnc(N(C)CCN(C)C)nc12` [III-236], the IC50 was 1120 nM.

As to `CN1CCC(CN2CCN(c3nc(N)c4ncnc(Nc5cccc(C(=O)Nc6cccc(C(F)(F)F)c6)c5)c4n3)CC2)CC1` [I-22], the IC50 came to 13 nM.

As to `Cc1ccc(C(=O)Nc2cc(CN3CCCC3)cc(C(F)(F)F)c2)cc1Nc1ncnc2cnc(N3CCC(F)CC3)nc12` [III-103], the half-maximal inhibitory concentration (IC50) was found to be 2 nM.

With `Cc1ccc(C(=O)Nc2cccc(S(=O)(=O)N(C)C)c2)cc1Nc1ncnc2cnc(N3CC[C@H](F)C3)nc12` [III-293], half-maximal inhibition (IC50) was put at 7 nM.

With `CC(C)(C)c1cc(NC(=O)c2ccc(F)c(Nc3ncnc4cnc(NC5CCOC5)nc34)c2)[nH]n1` (centres unmarked) [III-392], the 50% inhibitory concentration (IC50) was 3 nM.

The molecule `CN(C)c1ncc2ncnc(Nc3cc(C(=O)Nc4cc(C(C)(C)C)on4)ccc3Cl)c2n1` [III-69] registered an IC50 of 6 nM.

For `COc1ccc(C(=O)Nc2ccc(OC)c(C(F)(F)F)c2)cc1Nc1ncnc2cnc(NCCN(C)C)nc12` [III-27], the IC50 turned out to be 8 nM.

`Cc1ccc(C(=O)NCc2ccc(C(F)(F)F)cc2)cc1Nc1ncnc2cnc(N3CCN(C)CC3)nc12` [III-227] returned an IC50 of 41 nM.

Consider `Cc1ccc(C(=O)Nc2cc(CN3CCCC3)cc(C(F)(F)F)c2)cc1Nc1ncnc2cnc(NCc3ccccc3)nc12` [III-105], for which the half-maximal inhibitory concentration (IC50) was found to be 3 nM.

Take `COCCN(C)c1ncc2ncnc(Nc3cc(C(=O)Nc4ccc(OC)c(C(F)(F)F)c4)ccc3F)c2n1` [III-30]: the half-maximal inhibitory concentration (IC50) is 2 nM.

`Cc1ccc(C(=O)Nc2cc(CN3CCCC3)cc(C(F)(F)F)c2)cc1Nc1ncnc2cnc(N3CCOCC3)nc12` [III-108]: the IC50 was less than 1 nM.

Molecule `Cc1ccc(C(=O)Nc2cc(N3C[C@@H](C)N[C@@H](C)C3)cc(C(F)(F)F)c2)cc1Nc1ncnc2cnc(N3CCOCC3)nc12` [III-524] displayed an IC50 of 3 nM.

Turning to `Cc1ccc(C(=O)Nc2ccc(N(C)CCN(C)C)c(C(F)(F)F)c2)cc1Nc1ncnc2cnc(NCc3ccccn3)nc12` [III-135], the midpoint of inhibition, the IC50, lay at 4 nM.

Regarding `COc1ccc(NC(=O)c2ccc(F)c(Nc3ncnc4cnc(N(C)C)nc34)c2)cc1C(F)(F)F` [III-41], the IC50 came to 1 nM.

For the molecule `Cc1ccc(C(=O)Nc2cc(C(C)(C)C)n[nH]2)cc1Nc1ncnc2c(N)nc(N3C[C@@H](C)N[C@@H](C)C3)nc12` [I-35], half-maximal inhibition (IC50) required 2 nM.

The molecule `CNc1ncc2ncnc(Nc3cc(C(=O)Nc4cc(C(C)(C)C)on4)ccc3F)c2n1` [III-94] showed an IC50 of 6 nM.

The molecule `Cc1ccc(C(=O)Nc2ccc3c(c2)C(C)(C)C(=O)N3CCN2CCCC2)cc1Nc1ncnc2cnc(N3CCN(C)CC3)nc12` [III-186] came in with an IC50 of 26 nM. This IC50 lies about 4.3-fold higher than the previous one.

`COCCN1CCN(c2ncc3ncnc(Nc4cc(C(=O)Nc5cc(C(C)(C)C)on5)ccc4F)c3n2)CC1` [III-395] displayed an IC50 of 4 nM.

`COc1ccc(C(F)(F)F)cc1NC(=O)c1ccc(C)c(Nc2ncnc3cnc(N(C)CCN(C)C)nc23)c1` [III-234]: the IC50 is 15 nM.

`COc1ccc(NC(=O)c2ccc(C)c(N(C)c3ncnc4cnc(N5CCOCC5)nc34)c2)cc1C(F)(F)F` [III-584] yielded an IC50 of 18 nM. This IC50 and that of the molecule before are within 1.5-fold of each other.

Molecule `Cc1ccc(NC(=O)c2cccc(C(F)(F)F)c2)cc1Nc1ncnc2c(N)nc(NCc3ccccn3)nc12` [II-6] had a half-inhibitory concentration (IC50) of 96 nM. Compared with the last molecule, the IC50 is about 5.3-fold higher.

In turn, `Cc1ccc(C(=O)NCc2ccc(C(F)(F)F)cc2)cc1Nc1ncnc2cnc(N3CCOCC3)nc12` [III-307] gave a 50% inhibitory concentration (IC50) of 114 nM.

Regarding `Cc1ccc(C(=O)Nc2cc(C(C)(C)C)n[nH]2)cc1Nc1ncnc2c(N)nc(N3C[C@@H]4C[C@H]3CN4)nc12` [I-69], the midpoint of inhibition, the IC50, lay at 2 nM.

`Cc1ccc(C(=O)Nc2nnc(C(F)(F)F)s2)cc1Nc1ncnc2cnc(N3CCOCC3)nc12` [III-313] showed an IC50 of 200 nM.
